Results taken from patent US6949521B2, “Therapeutic azide compounds” (priority 1995, dated 2005).
“Also recorded” adds a separate entry of the source.

Tests used:
HIV-1 = conditions: relative to parent compounds ddA, ddI; cited from earlier work
in vivo [1] = conditions: for AUC: AUC0-τ; for half-life: t½
Excerpt: Animal studies. […] Animal studies were approved by the University of Georgia Animal Care and Use Committee and conducted in accordance with guidelines established by the Animal Welfare Act and the National Institutes of Health Guide for the Care and Use of Laboratory Animals. […] Animals were acclimatized to this environment for one week prior to the experiments.
At selected time intervals, mice (three animals per each time point) were anesthetized with diethyl ether and sacrificed by exsanguination via left ventricular heart puncture. Serum was harvested from blood collected. The brain was excised, rinsed with normal saline, blotted dry and weighed.
Analytical Methodology. […] The brain or liver tissue were homogenized in a 1:1 (g:mL) ratio with ice cold isotonic 0.05 M phosphate buffer, pH 7.4. […] Acetonitrile (600 μL) containing 0.1% acetic acid was added while vortexing to precipitate proteins. The tubes were centrifuged at 3,000 rpm for five minutes and the supernatant was transferred to a clean tube. Supernatant was evaporated to dryness under a stream of nitrogen gas at room temperature. The residual film was reconstituted in 110 μL of mobile phase and 50 μL was injected onto the HPLC.
Chromatographic separations were performed using a Hypersil ODS column 150×4.5 mm, 5 μm particle size (Alltech Associates, Deerfield, Ill.) preceded by a guard column packed with 30-40 μm pellicular Perisorb RP-18. Mobile phase flow rate was 2 mL/min. For the analysis of FAAddP and 2′-F-ara-ddA, the mobile phase consisted of 7% (v/v) acetonitrile in 80 mM sodium acetate, pH 5.0. […] Eluants were monitored at a UV wavelength of 260 nm.
Nucleoside standards ranging from 0.04 μg/mL to 100 μg/mL, prepared in blank PBS, serum, brain homogenate and liver homogenate were treated the same as unknown samples. Samples with nucleoside concentrations greater than 100 μg/mL were diluted with the appropriate blank matrix.
Data analysis in vivo studies. Nucleoside concentration as a function of time data were analyzed by a non-compartmental technique. […] Relative brain exposure (re) was calculated from AUCbrain/AUCserum.

[2] = Stability of 6-AAP at pH 2, 7 and 11 by UV spectroscopy; format: physicochemical; conditions: 37° C.
Procedure: (§1) The stability of 6-AAP at pH 2, 7 and 11 and towards adenosine deaminase hydrolysis was studied by UV spectroscopy.
Stability studies of 6AAP. A kinetic study at varying pHs (pH 2, 7 and 11 at 37.1° C.) was performed on a UV spectrophotometer to investigate the stability of 6-AAP. […] At pH 2, the compound was stable.

[3] = In vitro metabolism study of 6-AAP and ara-A in mouse liver homogenate, serum and brain homogenate
Procedure: (§2) All the solvents were of HPLC grade. Chromatography was performed on an Altech Hypersil ODS C18 (5 μm particle size, 4.5×150 mm, Altech Associates, Deerfield, Ill.).
(§3) In vitro metabolism study. Female NIH Swiss mice (Harland Sprague-Dawley, Indianapolis, Ind.) were sacrificed and serum, liver and brain tissues were collected before each experiment. Serum was collected from several animals. The brain and liver were washed in normal saline at 4° C., wiped and then weighed. […] Samples and blanks of volume 400 μL were collected at 0, 5, 15, and 30 minutes and at 1, 2, 3, 4 and 5 hours.
(§4) To measure the analyte concentrations in serum, liver or brain homogenate, 400 μL of sample was mixed with 50 μL of internal standard (AzdU, 5 μg/mL) and 0.7 mL of acetonitrile. After centrifugation, the supernatant was decanted to another tube and treated with anhydrous Na2SO4, then vortexed for one minute and centrifuged again. The organic layer was separated and evaporated under nitrogen stream at room temperature. The residue was reconstituted in mobile phase A and filtered through MPS-I micropartition system (3KD membranes (Amicon Inc., Beverly, Mass.) by centrifugation for 50 minutes at 2000 rpm to further clean-up the samples. 100 μL of filtrate was injected for analysis.

[4] = test system: microsomal fraction of the human liver homogenate; assay: Azido reduction assay
Procedure: Briefly, incubation mixtures contained either 1.5 mg of human liver fraction protein (homogenate or supernatant fractions following centrifugation) or 1.5 mg microsomal protein, 5.0 mM MgCl2, 6.0 mM NADPH and 0.4 mg/mL of 6-AAP in 0.1 M phosphate buffer saline at pH 7.4 (final volume of 0.2 mL). The reaction was initiated by adding NADPH and conducted at 37° C. for 60 minutes under nitrogen. Reactions were terminated by heating at 100° C. for 30 seconds and the proteins were removed by centrifugation at 14,000 g for six minutes. Aliquots (100 μL) were then analyzed for nucleosides by HPLC. Control incubations were performed in the absence of protein.
Inhibition of azido reduction assay: Assays were performed using 1.5 mg microsomal protein as described above following either a 45 second exposure to carbon monoxide or a 5 minute pre-incubation with 1 mM metyrapone prior to the addition of NADPH.

in vitro = conditions: female, NIH Swiss, mouse
Procedure: as §2, §3, §4

adenosine deaminase = target: T1, adenosine deaminase (Bos taurus, UniProt P56658); assay: Adenosine deaminase study of 6-AAP; format: biochemical, calf; conditions: phosphate buffer pH 7.4, 25° C., up to three hours
T1 construct: Type II crude powder from calf intestinal mucosa; purchased Sigma chemical Co., St. Louis, Mo; Type II crude powder; host or cells: calf intestinal mucosa
T1 sequence (P56658 1-363): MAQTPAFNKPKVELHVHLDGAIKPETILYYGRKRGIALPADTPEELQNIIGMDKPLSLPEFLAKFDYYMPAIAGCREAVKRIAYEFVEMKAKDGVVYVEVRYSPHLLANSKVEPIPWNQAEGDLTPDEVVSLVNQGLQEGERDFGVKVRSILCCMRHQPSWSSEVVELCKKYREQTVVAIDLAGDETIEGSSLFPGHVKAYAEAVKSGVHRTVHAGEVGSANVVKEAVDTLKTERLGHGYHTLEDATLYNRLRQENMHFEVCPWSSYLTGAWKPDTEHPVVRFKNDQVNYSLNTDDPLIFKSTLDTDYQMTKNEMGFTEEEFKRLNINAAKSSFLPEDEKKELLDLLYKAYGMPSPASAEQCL
Procedure: as §1
Materials: Melting points were determined on a Mel-Temp II laboratory device and are uncorrected. The ^1H NMR spectra were recorded on a JEOL FX 90 Q FT spectrophotometer, with TMS as the internal standard; chemical shifts are reported in parts per million (δ), and the signals are quoted as s (singlet), d (doublet), t (triplet) or m (multiplet). UV spectra are recorded on a Beckman DU-650 spectrophotometer. TLC was performed on Uniplates (silica gel) purchased from Analtech Co. Elemental analysis was performed by Atlantic Microlab, Inc., Norcross, Ga. Ara-A and Adenosine deaminase (Type II crude powder from calf intestinal mucosa, 1-5 units/mg activity) was purchased from Sigma chemical Co., St. Louis, Mo. All other chemicals are of reagent grade. Methanol and acetonitrile, methyl sulfoxide were purchased from EM Science, Gibbstown, N.J.
Adenosine deaminase studies.

in vivo [5] = conditions: female, NIH Swiss, mouse; for Kp: brain
Procedure: (§5) Analysis. […] All the solvents were of HPLC grade. Chromatography was performed on an Altech Hypersil ODS C18 (5 μm particle size, 4.5×150 mm, Altech Associates, Deerfield, Ill.).
(§6) In vivo pharmacokinetics: Female NIH Swiss mice (Harland Sprague-Dawley, Indianapolis, Ind.) weighing 24-28 g were used for the pharmacokinetic experiments.
(§7) At least three animals each were sacrificed at 0.08, 0.025, 0.5, 0.75, 1.0, 2.0, 3.0, 4.0, 5.0 and 6.0 hours after drug administration. Blood (serum) from the heart and whole-brain samples were collected. Serum samples were treated immediately and brain samples were frozen at −20° C. until analysis. To determine the nucleoside concentrations in the serum, a know amount of serum sample, 50 μL of the internal standard (AzdU, 5 μg/mL) and 1.0 mL of acetonitrile as a protein precipitant were added to polypropylene microcentrifuge tubes (1.7 mL). Tubes were mixed and centrifuged at 9,000 rpm for 10 minutes.
(§8) After homogenization, 1.8 mL of acetonitrile was added to tissue homogenates, samples were mixed and centrifuged at 9,000 rpm for 10 minutes. The resulting supernatant from the serum or the brain was transferred to a clean tube and dried under a stream of nitrogen gas at 22° C. The residue was reconstituted in 220 μL of mobile phase D and after centrifugation at 12,000 rpm for 40 min, 100-150 μL was injected for the HPLC analysis. […] After each assay, the column was equilibrated to initial conditions for 7 minutes.
(§9) The area under concentration (AUC) versus time profiles from time zero to the last measured concentration were determined by the linear trapezoidal rule and the AUC from the time of the last measured concentration to infinity was determined by dividing the last determined concentration by the least-squares elimination rate constant (λZ). […] The relative tissue exposure (re) of the compounds was calculated from AUCTissue/AUCserum.

[6] = In vivo pharmacokinetics of 6-AAP and ara-A in mice (serum and brain)
Procedure: as §5, §6, §7, §8, §9

[7] = in vivo; cited from earlier work
[8] = mice; after oral and intravenous prodrug 2′-F-ara-ddP administration; cited from earlier work
[9] = mouse, in vivo, iv, 100 mg/kg
Procedure: as §5, §6, §7, §8, §9

[10] = in vivo; cited from earlier work; remark: listed apart in the source
[11] = female, NIH-Swiss, mouse, in vivo, iv, 55 mg/kg
[12] = female, NIH-Swiss, mouse, in vivo, po, 55 mg/kg
[13] = 6-AAP and coformycin incubated in mouse liver homogenate
[14] = 6-AAP incubated in mouse liver homogenate
[15] = after 6-AAP 100 mg/kg iv, brain
[16] = after 6-AAP 100 mg/kg iv, serum
[17] = after 6-AAP 100 mg/kg oral, brain
[18] = after 6-AAP 100 mg/kg oral, serum
[19] = female, NIH-Swiss, mouse, in vivo, iv, 20 mg/kg
[20] = female, NIH-Swiss, mouse, in vivo, iv, 112 mg/kg

Nc1ncnc2c1ncn2[C@@H]1O[C@H](CO)C[C@@H]1F [2′-F-ara-ddA, 2′-fluoro-2′,3′-dideoxyadenosine]
potency in protecting CD4+ATH8 cells from cytopathogenic effects of HIV-1 (HIV-1): as potent as the parent compounds
AUC0-τ (in vivo [1]; [11]): 3.9 µM·h
AUC (in vivo [1]; [11]): 3 µM·h
AUC (in vivo [1]; [12]): 0.8 µM·h
half-life (in vivo [1]; [12]): 1.74 h
AUC/Dose (in vivo [1]; mice, after FAAddP 55 mg/kg iv, brain): 0.02 μM · h/μmol/kg
AUC/Dose (in vivo [1]; mice, after FAAddP 55 mg/kg iv, serum): 0.04 μM · h/μmol/kg
AUC/Dose (in vivo [1]; mice, after FAAddP 55 mg/kg oral, serum): 0.005 μM · h/μmol/kg

[N-]=[N+]=Nc1ncnc2c1ncn2[C@@H]1O[C@H](CO)[C@@H](O)[C@@H]1O [Compound 6-AAP, 9-(β-D-arabinofuranosyl)-6-azidopurine]
stability at pH 2 ([2]; UV at 287.5 nm, 2.75 hours): did not show any significant change; also recorded: stable
stability at pH 7 ([2]; UV at 287.5 nm, 2.75 hours): did not show any significant change; also recorded: stable
stability at pH 11 ([2]; UV spectroscopy): immediately changed its UV absorption maximum; also recorded: shifted from 287.5 nm to 222.5 nm immediately
Kel [3, 13]: 0.12 h⁻¹
T1/2 [3, 13]: 5.98 h
Kel ([3]; 6-AAP incubated in mouse brain homogenate): 0.01 h⁻¹
Kel [3, 14]: 0.14 h⁻¹
T1/2 [3, 14]: 4.66 h
Kel ([3]; 6-AAP incubated in mouse serum, calculated from 0 to 1 h): 0.25 h⁻¹
T1/2 ([3]; 6-AAP incubated in mouse serum, calculated from 0 to 1 h (slow initial decline)): 3.73 h
azido reduction (metabolites formed) [4]: converted to ara-A
half-life at 100 μg/mL (in vitro; brain homogenate): 7.29 h
half-life at 100 μg/mL (in vitro; tissue homogenate): 4.9 h
hydrolysis by adenosine deaminase (adenosine deaminase): not hydrolysed
Kp (in vivo [5]; intravenous, 100 mg/kg): 0.02
Kp (in vivo [5]; iv, 100 mg/kg): 0.02
Kp (in vivo [5]; oral, 100 mg/kg): 0.3
Kp (in vivo [5]; po, 100 mg/kg): 0.33
AUC (in vivo [5]; serum, iv, 20 mg/kg): 85.6 µg·h/mL
AUC (in vivo [5]; serum, iv, 100 mg/kg): 201 ± 17.9 µg·h/mL
AUC (in vivo [5]; serum, po, 100 mg/kg): 13.8 ± 1.4 µg·h/mL
bioavailability (in vivo [5]; serum, po, 100 mg/kg): 6.8%
Maximum concentration in serum, intravenous ([6]; after 6-AAP 100 mg/kg iv): 465 ± 167 µg/mL
maximum concentration in the brain, intravenous ([6]; after 6-AAP 100 mg/kg iv): 5.92 ± 0.7 µg/g
time of maximum concentration in the brain, intravenous ([6]; after 6-AAP 100 mg/kg iv): 5 min
AUC [6, 15]: 4.41 ± 0.37 µg·h/mL
t1/2 [6, 15]: 0.77 h
AUC [6, 16]: 201.1 ± 17.9 µg·h/mL
t1/2 [6, 16]: 0.55 h
Maximum concentration in serum, oral ([6]; after 6-AAP 100 mg/kg oral): 7.8 ± 2.51 µg/mL
maximum concentration in the brain, oral ([6]; after 6-AAP 100 mg/kg oral): 1.87 µg/g
time of maximum concentration in serum, oral ([6]; after 6-AAP 100 mg/kg oral): 60 min
time of maximum concentration in the brain, oral ([6]; after 6-AAP 100 mg/kg oral): 30 min
re (brain) ([6]; after 6-AAP 100 mg/kg oral, AUCTissue/AUCserum): 0.30
AUC [6, 17]: 4.12 ± 0.37 µg·h/mL
t1/2 [6, 17]: 1.29 h
AUC [6, 18]: 13.77 ± 1.40 µg·h/mL
t1/2 [6, 18]: 0.58 h
fold difference in the AUC values after iv dosing of 20 and 100 mg/kg ([6]; serum): 5 fold

Nc1nc2c(ncn2COCCO)c(=O)[nH]1 [Acyclovir]
oral bioavailability [7]: 15-20%

O=c1[nH]cnc2c1ncn2[C@@H]1O[C@H](CO)C[C@@H]1F [2′-F-ara-ddI, 2′-fluoro-2′,3′-dideoxyinosine]
potency in protecting CD4+ATH8 cells from cytopathogenic effects of HIV-1 (HIV-1): as potent as the parent compounds
clearance (in vivo [1]; female, NIH-Swiss, mouse, in vivo, iv): 2.18 L/h/kg
Kp (in vivo [1]; [19]): 0.165
half-life (in vivo [1]; [19]): 0.41 h
t½ (in vivo [1]; [11]): 0.96 h
half-life (in vivo [1]; [11]): 0.68 h
AUC/Dose (in vivo [1]; [20]): 0.025 μM · h/μmol/kg
AUC (in vivo [1]; [20]): 10.1 µM·h
half-life (in vivo [1]; [20]): 0.52 h
AUC/Dose (in vivo [1]; [12]): 0.046 μM · h/μmol/kg
AUC (in vivo [1]; [12]): 6.7 µM·h
half-life (in vivo [1]; [12]): 2.92 h
AUCbrain/AUCserum ratio [8]: approximately 36%

Nc1ncnc2c1ncn2[C@@H]1O[C@H](CO)[C@@H](O)[C@@H]1O [ara-A, 9-(β-D-arabinofuranosyl)adenine, reference compound]
serum level, initial (declined from) ([9]; female, NIH Swiss): 18.5 ± 3.5 µg/mL
presence in the brain [9]: not found
T1/2 [3, 14]: 1.46 h
T1/2 ([3]; Ara-A incubated in mouse liver homogenate): 0.04 h
half-life of ara-A generated from 6-AAP alone, times greater than that of ara-A itself ([3]; mouse liver homogenate): 36 times
half-life of ara-A [10]: four times longer
AUC (in vivo [5]; in vivo, iv, 100 mg/kg): 3.95 ± 0.2 µg·h/mL
concentration at 25 minutes (in vivo [5]; in vivo, iv, 100 mg/kg): 0.33 ± 0.25 µg/mL
